This note sets out measurements from patent US20240277772A1, “COMBINED ADMINISTRATION COMPOSITION FOR PREVENTING OR TREATING ATOPIC DERMATITIS, COMPRISING FUNCTION-ENHANCED STEM CELLS AND REGULATORY T CELLS” (SCM LIFESCIENCE CO., LTD., priority 2021, published 2024).

For the assay, the system named is mesenchymal stem cells. The assay is described as follows: qRT-PCR of IDO and TSG6 expression in mesenchymal stem cells treated with priming candidates. The format is cell-based. The following applies: for expression of IDO / expression of TSG6: Table 1 compositions, 24 hours, FIG. 4, compared to untreated control or to single substances; for lowest effective concentration capable of inducing significantly increased expression of both TSG6 and IDO: stem cells treated 24 hours, TNF-α and IFN-γ at 5, 10, 20 ng/ml, IFN-α at 10, 20, 40 ng/ml, FIGS. 1-3. As for the experimental part:
In a 37° C. and 5% CO2 incubator, mesenchymal stem cells in a storage state (LN2 tank storage) were thawed and cultured, and at this time, the cells were cultured in a medium (DMEM, alpha-MEM) containing 10% FBS or 4% hPL until proliferated to a cell confluence of about 80%. The cultured mesenchymal stem cells were seeded in a 100 mm dish and treated with candidate substances for enhancing the functions of the mesenchymal stem cells for 24 hours, and then the concentrations of primary candidate substances for enhancing the functions were set.
TNF-α, IFN-γ, and IFN-α were selected as the primary candidate substances, and in order to confirm the lowest effective concentration capable of increasing the expression of TNFα-stimulated gene-6 (TSG6) and indoleamine 2,3-dioxygenase (IDO) to confirm the enhanced functions, the stem cells were treated with 5, 10, and 20 ng/ml of TNF-α, 5, 10, and 20 ng/ml of IFN-γ, and 10, 20, and 40 ng/ml of IFN-α, respectively, and changes in expression of TSG6 and IDO were confirmed.
The IDO was known as an immunomodulatory factor that inhibited the proliferation of immune cells such as T cells by converting tryptophan, which was essential for T cell proliferation, into kynurenine, and the TSG6 was known as an anti-inflammatory regulator secreted from mesenchymal stem cells. After culturing the stem cells, total RNA was isolated using TRIzol (Invitrogen), and cDNA was synthesized from total RNA using PrimeScript™RT reagent Kit with gDNA Eraser (TaKaRa), and qRT-PCR was performed. The results of TSG6 and IDO according to the concentration of each candidate substance were illustrated in FIGS. 1, 2 and 3.
Through Example 1, in order to search for more function-enhanced compositions based on the candidate substances and lowest effective concentrations identified to induce the enhanced functions of stem cells, selected candidate substances and combined concentrations thereof were set as shown in Table 1. Mesenchymal stem cells were treated with the candidate combinations described in Table 1 below for 24 hours, and the stem cells were cultured as in Example 1, and then total RNA was isolated using TRIzol (Invitrogen). Thereafter, qRT-PCR was performed by synthesizing cDNA from total RNA using the PrimeScript™RT reagent Kit with gDNA Eraser (TaKaRa).
Vitamins were known to improve the proliferative ability of stem cells and maintain the stemness of stem cells when added during a stem cell culture process. Accordingly, various vitamins were treated in the stem cell culture process, and experiments were performed to confirm whether or not vitamins could achieve anti-inflammatory and immune function enhancing effects of stem cells. Specifically, the stem cells were treated with various types of vitamins shown in Table 2 below according to the method described in Example 1, and the results of confirming changes in expression of IDO and TSG6 according to treatment with each candidate substance were illustrated in FIG. 5.
Background: Real-time PCR tracks product formation cycle by cycle.

With IFN-α, the “expression of IDO” value was “increased expression”; the “expression of TSG6” value is given as “increased expression”; the “lowest effective concentration capable of inducing significantly increased expression of both TSG6 and IDO” value amounted to 20 ng/mL.

As to “IFN-γ [priming factor for stem cells, 10 ng/ml]”, the “expression of IDO” value is “increased expression”; the “expression of TSG6” value is given as “increased expression”; the “lowest effective concentration capable of inducing significantly increased expression of both TSG6 and IDO” value was determined as 10 ng/mL.

Take TNF-α: the “expression of IDO” value is “increased expression”; the “expression of TSG6” value is listed as “increased expression”; the “lowest effective concentration capable of inducing significantly increased expression of both TSG6 and IDO” value was determined as 10 ng/mL.
